These are literature values, as cited in article PMC9054008 (Science Advances, 2022).

For the series, the target named is I-Ab (Mus musculus, UniProt P14434+P14483). The conditions noted are these: cited from earlier work.
Sequence of I-Ab (P14434 whole entry, looked up): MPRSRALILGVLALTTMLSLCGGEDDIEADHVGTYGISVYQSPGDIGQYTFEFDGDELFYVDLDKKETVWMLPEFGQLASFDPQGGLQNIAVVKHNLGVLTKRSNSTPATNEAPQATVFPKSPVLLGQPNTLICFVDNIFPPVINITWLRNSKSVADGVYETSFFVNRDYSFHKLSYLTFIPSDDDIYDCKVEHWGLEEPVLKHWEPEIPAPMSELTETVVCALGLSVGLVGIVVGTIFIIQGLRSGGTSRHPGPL
Sequence of I-Ab (P14483 whole entry, looked up): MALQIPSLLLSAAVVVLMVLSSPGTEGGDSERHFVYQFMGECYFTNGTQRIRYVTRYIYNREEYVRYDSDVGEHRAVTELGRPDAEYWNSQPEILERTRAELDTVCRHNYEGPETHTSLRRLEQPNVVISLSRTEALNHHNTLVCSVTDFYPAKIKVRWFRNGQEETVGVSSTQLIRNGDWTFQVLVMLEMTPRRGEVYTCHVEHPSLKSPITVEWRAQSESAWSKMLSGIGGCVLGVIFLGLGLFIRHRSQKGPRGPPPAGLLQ
For orientation: IC50 means the concentration that gives 50% inhibition. As for ILKGVINIWGSGLLQ, the IC50 was 7.27 µM.

For the sequence IEDAKRMIAISAKVA, the IC50 is 6.99 µM. On to TKKSIKEIASSISRL, for which the half-maximal inhibitory concentration (IC50) is 3.77 µM. Regarding NSLILLECFVRSSPA, the IC50 is 6.03 µM. For the sequence EEALNVALAVVTLLA, the half-inhibitory concentration (IC50) was 2.73 µM. As for MDLADLFNAQPGLTS, the IC50 is 5.78 µM.

As to RHIVGKPCPKPHRLN, the IC50 was 8.7 µM. Consider SGDAMARNISSRTLE, for which the IC50 is 5.34 µM. In the case of KVFNTRRNTLLFLDL, the IC50 is 4.62 µM. As for MGQLISFFGEIPSII, the IC50 was 9.64 µM.
